From patent publication US20250206745A1, “PYRROLOPYRIDAZINE DERIVATIVES AND RELATED USES” (NodThera Limited, priority 2023, published 2025) come the findings set out here.

Test [1] concerns IL-1β release upon NLRP3 activation in phorbol 12-myristate 13-acetate (PMA)-differentiated THP-1 cells. As to the kind of experiment: THP-1 IC50 Determination Assay. It counts as cell-based. Conditions: Homo sapiens, inhibition of IL-1β release, LPS, nigericin, ELISA. The protocol:
The compounds of the present disclosure were tested for their inhibitory activity against IL-1β release upon NLRP3 activation in phorbol 12-myristate 13-acetate (PMA)-differentiated THP-1 cells.
THP-1 cells stored in liquid nitrogen were thawed in a 37° C. water bath. The cells were added into complete RPMI 1640 medium (FBS (56 mL), 100× Penicillin-Streptomycin (5.6 mL) and 0.05 mM 2-Mercaptoethanol in RPMI 1640 Medium (500 mL)) and centrifuged for 5 min at 1000 rpm. The supernatant was discarded and the cells resuspended into new cell culture medium for culturing. Cells were cultured in cell culture medium and passaged every 3-4 days to maintain cell density between 4×10^5 and 1.5×10^6 cells/mL. The cells were diluted to 0.8×10^6 cells/mL and grown in a T150 flask with PMA (final concentration 5 ng/mL). The flask was incubated in a 37° C. incubator with a humidified atmosphere of 5% CO2 for −40 hours. After −40 hours of PMA differentiation, the flask was washed with DPBS. Cells were digested with Trypsin LE for about 5 min at room temperature, and digestion was terminated using complete RPMI 1640 medium. Cells were centrifuged and resuspended (1000 rpm, 3 min). The supernatant was discarded and cells washed with DPBS, centrifuged and resuspended cells (1000 rpm, 5 min). Cells were plated at 30,000 cells/well in a 384-well PP plate and treated with 25 ng/mL LPS solution diluted in serum-free medium (45 μL). The plate was incubated in a 37° C. incubator with a humidified atmosphere of 5% CO2 for 2 hours. Compounds (from 10 mM DMSO solution) were dispensed and serially diluted by 1:3 eight times, with final 0.5% DMSO concentration. NLRP3 inflammasome was activated with nigericin (5 μL), the plate was centrifuged (1000 rpm, 30 s) and incubated in a 37° C. incubator with a humidified atmosphere of […] for 2 hours. 35 μL/well of supernatant was removed and IL-1β levels determined by ELISA assay (Mabtech 3416-1H-20) according to the manufacturer's instructions.
In general terms: An ELISA detects its analyte on a solid surface through an enzyme-linked reagent.

For test [2], the system named is IL-1β release upon NLRP3 activation in peripheral blood mononuclear cells (PBMC). As to the kind of experiment: PBMC IC50 Determination Assay. Conditions: Homo sapiens; inhibition of IL-1β release; PBMC primed with LPS, stimulated with ATP or nigericin; ELISA or HTRF. It counts as cell-based. Here is the method:
The compounds of the present disclosure were tested for their inhibitory activity against IL-1β release upon NLRP3 activation in peripheral blood mononuclear cells (PBMC).
Protocol A. PBMC were isolated from buffy coats by density gradient centrifugation on Histopaque-1077 (Sigma, cat no. 10771). Isolated cells were seeded into the wells of a 96-well plate and incubated for 3 h with lipopolysaccharide (LPS). Following medium exchange, the compounds of the present disclosure were added (a single compound per well) and the cells were incubated for 30 min. Next, the cells were stimulated either with ATP (5 mM) or nigericin (10 μM) for 1 h and the cell culture media from the wells were collected for further analysis.
The release of IL-1β into the media was determined by a quantitative detection of IL-1β in the media using an IL-1β enzyme-linked immunosorbent assay (ELISA) Ready-SET-Go!, eBioscience cat. No. 88-7261-88. Briefly, in a first step, high affinity binding plates (Corning, Costar 9018 or NUNC Maxisorp Cat No. 44-2404) were coated overnight at 4° C. with specific capture antibody included in the kit (anti-human IL-1β ref. 14-7018-68). Subsequently, plates were blocked with blocking buffer for 1 h at room temperature (rt) and after washing with a buffer (PBS with 0.05% Tween-20) incubated with protein standard and culture media. After 2 h of incubation at rt, plates were washed and incubated with biotinylated detection antibody included in the kit (anti-human IL-1β Biotin ref. 33-7110-68) for 1 h at rt. Plates were washed and incubated with HRP-streptavidin for 30 min at rt and washed again. The signal was developed after addition of 3,3′,5,5′-tetramethylbenzidine-peroxidase (TMB) until colour appeared and the reaction was stopped by 2 M H2SO4. A microplate spectrophotometer (BioTek) was used to detect signals with 450 nm. The detection range of IL-1β ELISA was […].
Protocol B. PBMC were isolated from buffy coats by density gradient centrifugation on Histopaque-1077 (Sigma, cat no. 10771). Isolated cells were seeded into the wells (280,000 cells/well) of a 96-well plate and incubated for 3 h with lipopolysaccharide (LPS, 1 μg/mL diluted 1000× from a 1 mg/mL stock solution). The compounds of the present disclosure were added (a single compound per well) and the cells were incubated for 30 min. Next, the cells were stimulated with ATP (5 mM final concentration diluted 20× from a 100 mM stock solution) for 1 h and the cell culture media from the wells were collected for further analysis.
The release of IL-1β into the media was determined by quantitative detection of IL-1β in the media using HTRF®, CisBio cat. No. 62HIL1BPEH. Briefly, cell culture supernatant were dispensed directly into the assay plate containing antibodies labelled with the HTRF® donor and acceptor. A microplate spectrophotometer (BMG) was used to detect signals at 655 nm and 620 nm. The detection range of IL-1β HTRF® was 39-6500 pg/mL.

pIC50: −log10 of the molar value. Where a name gives a salt, the structure may show the parent alone.

In general, pIC50 refers to −log10 of the IC50, conventionally taken in molar units. Read a low pIC50 as a high IC50. As for `Cc1cc(Cl)cc(O)c1-c1cc2ccn(C[C@@H]3CCN(C)C[C@@H]3F)c2nn1` (relative stereo) [Compound 24, Cis-5-chloro-2-{7-[(3-fluoro-1-methylpiperidin-4-yl)methyl]-7H-pyrrolo[2,3-c]pyridazin-3-yl}-3-methylphenol], the pIC50 in test [1] is 6.52 to 7.00; in test [2], 7.00 to 7.52. In the same order, the values of `Cc1cc(Cl)cc(O)c1-c1cc2ccn(C[C@@H]3CCN(C)C[C@H]3F)c2nn1` (relative stereo) [Compound 51, Trans-5-chloro-2-{7-[(3-fluoro-1-methylpiperidin-4-yl)methyl]-7H-pyrrolo[2,3-c]pyridazin-3-yl}-3-methylphenol hydrochloride] are 5.52 to 6.00 and 6.52 to 7.00.

Turning to `Cc1cc(C(F)(F)F)cc(O)c1-c1cc2ccn(CC3CCOCC3)c2nn1` [Compound 1, 3-Methyl-2-{7-[(oxan-4-yl)methyl]-7H-pyrrolo[2,3-c]pyridazin-3-yl}-5-(trifluoromethyl)phenol], the pIC50 in test [1] is 6.00 to 6.52; in test [2], 6.52 to 7.00.

Take `Cc1cc(C(F)(F)F)cc(O)c1-c1cc2ccn(CC3CCCO3)c2nn1` (stereo not shown) [Compound 2, 3-Methyl-2-{7-[(oxolan-2-yl)methyl]-7H-pyrrolo[2,3-c]pyridazin-3-yl}-5-(trifluoromethyl)phenol]: the results for the pIC50 in test [1] and in test [2] were 6.52 to 7.00 and 6.00 to 6.52, respectively.

As for `Cc1cc(C(F)(F)F)cc(O)c1-c1cc2ccn(CC3CCOC3)c2nn1` (stereo not shown) [Compound 3, 3-Methyl-2-{7-[(oxolan-3-yl)methyl]-7H-pyrrolo[2,3-c]pyridazin-3-yl}-5-(trifluoromethyl)phenol], the pIC50 in test [1] and in test [2] was 6.52 to 7.00 in each case. Turning to `Cc1cc(C(F)(F)F)cc(O)c1-c1cc2ccn(CC3CCN(C)CC3)c2nn1` [Compound 4, 3-Methyl-2-{7-[(1-methylpiperidin-4-yl)methyl]-7H-pyrrolo[2,3-c]pyridazin-3-yl}-5-(trifluoromethyl)phenol], the pIC50 in test [1] and in test [2] was 7.00 to 7.52 in each case. With `Cc1cc(C(F)(F)F)cc(O)c1-c1cc2cc[nH]c2nn1` [Compound 5, 3-Methyl-2-{7H-pyrrolo[2,3-c]pyridazin-3-yl}-5-(trifluoromethyl)phenol], the pIC50 in test [1] and in test [2] was 6.00 to 6.52 in each case. In the case of `Cc1cc(C(F)(F)F)cc(O)c1-c1cc2ccn(C)c2nn1` [Compound 6, 3-Methyl-2-{7-methyl-7H-pyrrolo[2,3-c]pyridazin-3-yl}-5-(trifluoromethyl)phenol], the pIC50 in test [1] and in test [2] was 6.00 to 6.52 throughout. On to `Cc1cc(Cl)cc(O)c1-c1cc2ccn(CC3CCN(CC(F)(F)F)CC3)c2nn1` [Compound 7, 5-Chloro-3-methyl-2-(7-{[1-(2,2,2-trifluoroethyl)piperidin-4-yl]methyl}-7H-pyrrolo[2,3-c]pyridazin-3-yl)phenol], for which the negative logarithm of the IC50 (pIC50) in test [1] and in test [2] was 6.00 to 6.52 throughout. `Cc1cc(Cl)cc(O)c1-c1cc2ccn(CC3CCCN(C)C3)c2nn1` (stereo not shown) [Compound 8, 5-Chloro-3-methyl-2-{7-[(1-methylpiperidin-3-yl)methyl]-7H-pyrrolo[2,3-c]pyridazin-3-yl}phenol]: the pIC50 is 6.52 to 7.00 in test [1] and 7.00 to 7.52 in test [2]. As to `Cc1cc(Cl)cc(O)c1-c1cc2ccn(CC(=O)N(C)[C@@H]3CCOC3)c2nn1` [Compound 60, 2-[3-(4-Chloro-2-hydroxy-6-methylphenyl)-7H-pyrrolo[2,3-c]pyridazin-7-yl]-N-methyl-N-[(3R)-oxolan-3-yl]acetamide], the pIC50 in test [1] was 6.52 to 7.00. `Cc1cc(Cl)cc(O)c1-c1cc2ccn(CC(=O)N(C)[C@H]3CCN(C)C3)c2nn1` [Compound 61, 2-[3-(4-Chloro-2-hydroxy-6-methylphenyl)-7H-pyrrolo[2,3-c]pyridazin-7-yl]-N-methyl-N-[(3S)-1-methylpyrrolidin-3-yl]acetamide hydrochloride] gave a pIC50 in test [1] of 6.52 to 7.00. In test [1], `Cc1cc(Cl)cc(O)c1-c1cc2ccn(CC(=O)N(C)[C@@H]3CCN(C)C3)c2nn1` [Compound 62, 2-[3-(4-Chloro-2-hydroxy-6-methylphenyl)-7H-pyrrolo[2,3-c]pyridazin-7-yl]-N-methyl-N-[(3R)-1-methylpyrrolidin-3-yl]acetamide hydrochloride] gave a pIC50 of 6.00 to 6.52. Compound `Cc1cc(Cl)cc(O)c1-c1cc2ccn(CC3CC(=O)N(C)C3)c2nn1` (stereo not shown) [Compound 64, 4-{[3-(4-Chloro-2-hydroxy-6-methylphenyl)-7H-pyrrolo[2,3-c]pyridazin-7-yl]methyl}-1-methylpyrrolidin-2-one] showed a pIC50 in test [1] of 6.52 to 7.00. Compound `Cc1cc(Cl)cc(O)c1-c1cc2ccn(CC3CCN(C)C3=O)c2nn1` (stereo not shown) [Compound 66, 3-{[3-(4-Chloro-2-hydroxy-6-methylphenyl)-7H-pyrrolo[2,3-c]pyridazin-7-yl]methyl}-1-methylpyrrolidin-2-one] had a pIC50 in test [1] of 6.00 to 6.52. Take `Cc1cc(Cl)cc(O)c1-c1cc2ccn(C3CCN(C)CC3)c2nn1` [Compound 67, 5-Chloro-3-methyl-2-[7-(1-methylpiperidin-4-yl)-7H-pyrrolo[2,3-c]pyridazin-3-yl]phenol]: in test [1], the pIC50 is 6.00 to 6.52. For `CN1CCC(Cn2ccc3cc(-c4ccc(C#N)cc4O)nnc32)CC1` [Compound 68, 3-Hydroxy-4-{7-[(1-methylpiperidin-4-yl)methyl]-7H-pyrrolo[2,3-c]pyridazin-3-yl}benzonitrile], the pIC50 in test [1] is 5.00 to 5.52. Still for that read-out and setting: as for `Cc1cc(Cl)cc(O)c1-c1cc2ccn([C@@H]3CCN(C)C3=O)c2nn1` [Compound 69, (3R)-3-[3-(4-Chloro-2-hydroxy-6-methylphenyl)-7H-pyrrolo[2,3-c]pyridazin-7-yl]-1-methylpyrrolidin-2-one], the figure is 6.00 to 6.52. Turning to `Cc1cc(Cl)cc(O)c1-c1cc2ccn(CC3CCC(=O)N(C)C3)c2nn1` (stereo not shown) [Compound 70, 5-{[3-(4-Chloro-2-hydroxy-6-methylphenyl)-7H-pyrrolo[2,3-c]pyridazin-7-yl]methyl}-1-methylpiperidin-2-one], in test [1], the pIC50 is 6.52 to 7.00. On the same count and under the same terms, the figure for `Cc1cc(Cl)cc(O)c1-c1cc2ncn(C[C@@H]3CCCN(C)C3)c2nn1` [Compound 79, 5-Chloro-3-methyl-2-(7-{[(3R)-1-methylpiperidin-3-yl]methyl}-7H-imidazo[4,5-c]pyridazin-3-yl)phenol hydrochloride] is 7.00 to 7.52.

Compound `Cc1cc(Cl)cc(O)c1-c1cc2ncn(C[C@H]3CCCN(C)C3)c2nn1` [Compound 80, 5-Chloro-3-methyl-2-(7-{[(3S)-1-methylpiperidin-3-yl]methyl}-7H-imidazo[4,5-c]pyridazin-3-yl)phenol hydrochloride] gave a pIC50 in test [1] of 6.52 to 7.00.
